# Test results published in patent US20230121474A1, “STERILIZATION COMPOSITIONS AND METHODS FOR USING THEREOF” (Save Foods Ltd., priority 2020, published 2023).
# Key:
# Listeria = assay: In-vitro antimicrobial activity, edible matter contaminated with bacteria dipped into test solution (CFU reduction); format: cell-based; conditions: contact time 60 minutes
# Experimental: The antimicrobial activity of the composition was tested in-vitro. […] The contact time was 60 minutes. The antimicrobial activity was assessed by calculating bacterial viability (e.g. reduction of the CFU).
# [1] = tested on: pre-infected lemons (inoculum of homogenized infected lemons); assay: Decay of pre-infected, pricked lemons after sanitizing treatment; format: in vivo
# Description: Inoculum preparation: Infected lemons were identified visually and collected under three different lemon trees on Moshav Beit Yitzhak. Ten of the more infected lemons were put into a food processor, diluted with rainwater and homogenized to uniform, grayish brown, slightly viscous liquid consistency.
# They were sent to de-greening from which they were removed on 2nd day. All lemons were pricked in 6 different location on each lemon using a metal nail attached to a rubber stopper which ensured a uniform pricking depth of 1.5 mm on all the lemons. On the same day the liquidized inoculum was prepared as described above and all the lemons were dipped into the “infected” water solution for 30 seconds and allowed to dry at ambient room conditions—temperatures between […].
# On the next day the lemons were treated as per description below to screen the various treatment's efficacy in controlling and preventing decay and spoilage of the pre-infected lemons. All treated lemons were divided and placed in separate cartons and allowed to dry. Disease progress of the lemons was monitored for 7 days with no visible disease symptoms. On day 8 after treatment all cartons were covered with plastic sheeting in order to increase ambient humidity to speed up disease development.
# common fungal pathogen = assay: Decay of clementine infested with fungal pathogen after treatment; format: in vivo; conditions: fruits infested at around 10^5 CFU, cold storage 9 to 21 days then room temperature
# Experimental: Additionally, exemplary sanitizing composition (Composition B) was applied on clementine, and the fruit decay was evaluated as compared to only PAA treatment or untreated fruits. The fruits were infested with a common fungal pathogen at a concentration of around 10^5 CFU and inoculated for 16-24 hours before treatment. Following the treatments, the fruits were stored in cold storage for between 9 to 21 days and then stored in room temperature for shelf-life evaluation.
# [2] = acid blend 1:1:1 molar ratio with oxidizing agent, potent = at least 10^5-fold reduction of CFUs
# [3] = Treatment 3: PAA 50 ppm/PAA 50 ppm, contact time 60 sec
# [4] = Treatment 4: PAA 50 ppm/PAA 50 ppm, contact time 45 sec
# [5] = Treatment 5: PAA 30 ppm, contact time 45 sec
compound,measurement,setting,value
CCC(=O)O [propionic acid],concentration of propionic acid within the solution sufficient for antibacterial activity,Listeria; [2],100 ppm
"CC(=O)OO [PAA, per-acetic acid]",% Infected Lemons 15 DAT,[1]; [3],16.7%
same,% Infected lemons 10 DAT,[1]; [3],0%
same,Infected Lemons 10 DAT,[1]; [3],0
same,Infected Lemons 15 DAT,[1]; [3],2
same,% Infected Lemons 15 DAT,[1]; [4],25%
same,% Infected lemons 10 DAT,[1]; [4],20%
same,Infected Lemons 10 DAT,[1]; [4],3
same,Infected Lemons 15 DAT,[1]; [4],3
same,% Infected Lemons 15 DAT,[1]; [5],40%
same,% Infected lemons 10 DAT,[1]; [5],40%
same,Infected Lemons 10 DAT,[1]; [5],4
same,Infected Lemons 15 DAT,[1]; [5],4
same,decay of clementine,common fungal pathogen,about 20%
OO [hydrogen peroxide],minimum concentration of hydrogen peroxide within the solution,Listeria; [2],200 ppm
same,antimicrobial activity of the oxidizing agent alone,Listeria; without acid blend,"Neither hydrogen peroxide, nor silver/hydrogen peroxide combination showed a significant antimicrobial activity"
